“And” between values parts separate entries of the source, which are not always exact repeats. Identical values can stand only once. Numbers after ± are expanded uncertainties.
Settings: Liquid, Closed cell (Static) method

Row | Structure (SMILES) | vapor or sublimation pressure (273.15 K) [kPa] | vapor or sublimation pressure (283.15 K) [kPa] | vapor or sublimation pressure (293.15 K) [kPa] | vapor or sublimation pressure (303.15 K) [kPa] | vapor or sublimation pressure (313.15 K) [kPa] | vapor or sublimation pressure (323.15 K) [kPa] | vapor or sublimation pressure (333.15 K) [kPa] | vapor or sublimation pressure (343.15 K) | vapor or sublimation pressure (353.15 K) [kPa] | vapor or sublimation pressure (363.15 K) [kPa] | also measured
1 | CN(C)CCO [2-(N,N-dimethylamino)ethanol] | 0.142 ± 0.004 | 0.2979 ± 0.0068 | 0.59 ± 0.013 | 1.11 ± 0.024 | 1.993 ± 0.041 | 3.435 ± 0.071 | 5.705 ± 0.12 | 9.165 ± 0.19 kPa | 14.29 ± 0.29 | 21.66 ± 0.44 | vapor or sublimation pressure (273.86 K): 0.149 ± 0.0036 kPa; vapor or sublimation pressure (282.97 K): 0.2938 ± 0.0067 kPa and 0.2945 ± 0.0067 kPa; vapor or sublimation pressure (292.89 K): 0.5824 ± 0.013 kPa; vapor or sublimation pressure (292.91 K): 0.5823 ± 0.013 kPa and 0.5822 ± 0.013 kPa; vapor or sublimation pressure (302.89 K): 1.095 ± 0.024 kPa and 1.096 ± 0.024 kPa; vapor or sublimation pressure (312.86 K): 1.963 ± 0.041 kPa; vapor or sublimation pressure (323.03 K): 3.392 ± 0.07 kPa; vapor or sublimation pressure (333.06 K): 5.626 ± 0.11 kPa; vapor or sublimation pressure (343.05 K): 9.047 ± 0.19 kPa; vapor or sublimation pressure (353.04 K): 14.45 ± 0.3 kPa; vapor or sublimation pressure (363.1 K): 21.59 ± 0.43 kPa
2 | CC(C)N(C)C [N,N-dimethylisopropylamine] | 6.65 ± 0.14 | 11.11 ± 0.22 | 17.77 ± 0.36 | 27.37 ± 0.55 | 40.76 ± 0.82 | 58.9 ± 1.2 | 82.89 ± 1.7 | – | – | – | vapor or sublimation pressure (274.58 K): 7.183 ± 0.15 kPa and 7.185 ± 0.15 kPa and 7.197 ± 0.15 kPa; vapor or sublimation pressure (283.86 K): 11.39 ± 0.23 kPa; vapor or sublimation pressure (293.81 K): 18.3 ± 0.37 kPa and 18.39 ± 0.37 kPa; vapor or sublimation pressure (303.82 K): 28.18 ± 0.57 kPa; vapor or sublimation pressure (313.79 K): 41.76 ± 0.84 kPa and 41.79 ± 0.84 kPa and 41.8 ± 0.84 kPa; vapor or sublimation pressure (324.02 K): 60.66 ± 1.2 kPa and 60.72 ± 1.2 kPa; vapor or sublimation pressure (334.05 K): 85.36 ± 1.7 kPa [middle of 4 runs]
3 | CCN1CCOCC1 [4-ethylmorpholine] | – | 0.5816 ± 0.013 | 1.083 ± 0.024 | 1.918 ± 0.04 | 3.253 ± 0.067 | 5.304 ± 0.11 | 8.353 ± 0.17 | 12.75 ± 0.26 kPa | 18.92 ± 0.38 | 27.37 ± 0.56 | vapor or sublimation pressure (283.98 K): 0.6293 ± 0.014 kPa; vapor or sublimation pressure (293.93 K): 1.142 ± 0.025 kPa; vapor or sublimation pressure (303.86 K): 1.985 ± 0.041 kPa and 1.989 ± 0.041 kPa; vapor or sublimation pressure (323.78 K): 5.303 ± 0.11 kPa; vapor or sublimation pressure (333.91 K): 8.702 ± 0.18 kPa; vapor or sublimation pressure (343.88 K): 13.07 ± 0.26 kPa; vapor or sublimation pressure (353.9 K): 18.88 ± 0.38 kPa; vapor or sublimation pressure (363.86 K): 28.78 ± 0.58 kPa
4 | O [water] | 0.5798 ± 0.013 | 1.183 ± 0.026 | 2.277 ± 0.047 | 4.165 ± 0.085 | 7.284 ± 0.15 | 12.23 ± 0.25 | 19.82 ± 0.4 | 31.09 ± 0.63 kPa and 30.82 ± 0.62 kPa | 47.34 ± 0.95 | 70.22 ± 1.4 | –

Reference: the NIST ThermoML archive (doi:10.1016/j.jct.2013.03.020)
